Data from patent publication US20260263521A1, “ANTI-CD200R1 ANTIBODY AND USE THEREOF” (AIMED BIO INC., priority 2023, published 2026).

Tested on: Th1/Th2 cytokines in nasal polyp patient specimens
Assay: Ex vivo cytokine inhibition in nasal polyp patient specimens (CBA)
Format: cell-based, human
Details: antibody drugs 100 nM; three DUPIXENT-resistant samples of 10; Th2 cytokines IL-5, IL-4
Description: The specimens were finely chopped and minced, and then additionally processed twice using the m_lung_02 protocol on a gentleMACS (Miltenyi Biotec) to obtain tissue fragments. After centrifugation at 1500 rpm for 3 minutes to ensure that all tissues formed a pellet, RPMI media+10% FBS was aliquoted in the pellet at a 1:3 ratio. The pellet was thoroughly mixed with the medium and dispensed into a 96-well u-bottom plate, 100 μl per well, in triplicate for each drug. To establish the screening assay, results were obtained first using dexamethasone (a steroid-based positive control drug), followed by treatment with the anti-CD200R1 antibody (P001009v1) and other drugs used for the corresponding disease. All antibody-based drugs were treated at 100 nM, while steroid drugs such as dexamethasone were treated at 20 μM.
After drug treatment, the cells were incubated at 37° C. for 1 hour. To increase overall cytokine levels, 4 μl of a 10-fold diluted cell stimulation cocktail 500× (Invitrogen #00-4970-03) was added on each well and mixed. After reaction for 24 hours at 37° C., the supernatant was collected by centrifugation. Using the human Th1/Th2 cytokine cytometric bead array (CBA) kit (BD, #550749), cytokine levels in the supernatant were measured and the degree of drug responsiveness of each sample was determined.

DUPIXENT®: drug used as a conventional therapeutic agent for atopic dermatitis and allergic diseases [reference compound]
cytokine suppression in nasal polyp patient samples: no suppression
